# Activity calls are given as the source filed them. The rule behind the calls is not given here.
# How the values were obtained:
# TE-671 [1] = assay: Cytotoxicity against human TE671 cells at 10 ug/ml; assay type: functional, cell-based
# KB [2] = assay: Cytotoxicity against human KB cells at 10 ug/ml; assay type: functional, cell-based
# HCT-8 [3] = assay: Cytotoxicity against human HCT8 cells at 10 ug/ml; assay type: functional, cell-based
# A549 [4] = assay: Cytotoxicity against human A549 cells at 10 ug/ml; assay type: functional, cell-based
# P388 [5] = assay: Cytotoxicity against mouse P388 cells at 10 ug/ml; assay type: functional, cell-based
# HCT-8 [6] = assay: Cytotoxicity against human HCT8 cells; assay type: functional; conditions: read-out: ED50 (the source's name)
# P388 [7] = assay: Cytotoxicity against mouse P388 cells; assay type: functional; conditions: read-out: ED50 (the source's name)
# A549 [8] = assay: Cytotoxicity against human A549 cells; assay type: functional; conditions: read-out: ED50 (the source's name)
# TE-671 [9] = assay: Cytotoxicity against human TE671 cells; assay type: functional; conditions: read-out: ED50 (the source's name)
# KB [10] = assay: Cytotoxicity against human KB cells; assay type: functional; conditions: read-out: ED50 (the source's name)
Structure (SMILES),Activity (TE-671 [1]),Activity (KB [2]),Activity (HCT-8 [3]),Activity (A549 [4]),Activity (P388 [5]),EC50 (HCT-8 [6]) [µg/mL],EC50 (P388 [7]) [µg/mL],EC50 (A549 [8]) [µg/mL],EC50 (TE-671 [9]) [µg/mL],EC50 (KB [10]) [µg/mL]
COC(=O)[C@@]12OC[C@]34[C@H](CC(=O)[C@H](OC(=O)c5ccccc5)[C@@H]13)C[C@@H](C(C)=O)[C@](C)(CC(=O)O)[C@H]4[C@@H](O)[C@@H]2O,inactive,inactive,inactive,inactive,inactive,,,,,
COC(=O)[C@@]12OC[C@]34[C@H](CC(=O)[C@H](OC(=O)/C=C(\C)C(C)(C)O)[C@@H]13)C[C@@H](C(C)=O)[C@](C)(CC(=O)O)[C@H]4[C@@H](O)[C@@H]2O [BRUCEANIC ACID D],,,,,,10,0.77,10,,
COC(=O)[C@@]12OC[C@]34[C@H](CC(=O)[C@H](OC(=O)/C=C(\C)C(C)C)[C@@H]13)C[C@@H](C(C)=O)[C@](C)(CC(=O)O)[C@H]4[C@@H](O)[C@@H]2O [BRUCEANIC ACID A],,,,,,10,,10,5.5,4.16
COC(=O)[C@@]12OC[C@]34[C@H](CC(=O)[C@H](OC(=O)/C=C(\C)C(C)(C)OC(C)=O)[C@@H]13)C[C@@H](C(C)=O)[C@](C)(CC(=O)O)[C@H]4[C@@H](O)[C@@H]2O,inactive,inactive,inactive,inactive,inactive,,,,,
COC(=O)C[C@]1(C)[C@H]2[C@@H](O)[C@H](O)[C@]3(C(=O)OC)OC[C@@]24[C@H](CC(=O)[C@H](OC(=O)/C=C(\C)C(C)C)[C@@H]34)C[C@H]1C(C)=O,inactive,inactive,inactive,inactive,inactive,,,,,

# — ChEMBL document CHEMBL1158928, “Antitumor agents, 118. The isolation and characterization of bruceanic acid A, its methyl ester, and the new bruceanic acids B, C, and D, from Brucea antidysenterica” (1990)
